Laboratory results: ChEMBL document CHEMBL5543111, “Uncovering PROTAC Sensitivity and Efficacy by Multidimensional Proteome Profiling: A Case for STAT3” (J Med Chem, 2024)
Activity calls are given as the source filed them.

Key:
[1] = Toxicity in CB-17/SCID mouse bearing late stage of TPPRC assessed as effect on body weight at 25 to 50 mg/kg, iv measured after 21 days; format: organism-based; conditions: in vivo, 504 h, dose 25-50 mg/kg, time 21 day
[2] = biological target: T1, Protein cereblon/Signal transducer and activator of transcription 3 (Homo sapiens) (UniProt P40763+Q96SW2); assay: PROTAC activity at CRBN/STAT3 in human KARPAS-299 cells assessed as induction of STAT3 degradation at 5 uM measured after 3 hrs; format: cell-based
[3] = biological target: T1, Protein cereblon/Signal transducer and activator of transcription 3 (Homo sapiens); assay: PROTAC activity at CRBN/STAT3 in human MOLM16 cells assessed as induction of STAT3 degradation at 5 uM measured after 3 hrs; format: cell-based
[4] = biological target: T1, Protein cereblon/Signal transducer and activator of transcription 3 (Homo sapiens); assay: PROTAC activity at CRBN/STAT3 in human SUPM2 cells assessed as induction of STAT3 degradation at 5 uM measured after 3 hrs; format: cell-based
[5] = biological target: T1, Protein cereblon/Signal transducer and activator of transcription 3 (Homo sapiens); assay: PROTAC activity at CRBN/STAT3 in human DB cells assessed as induction of STAT3 degradation at 5 uM measured after 3 hrs; format: cell-based
[6] = biological target: T1, Protein cereblon/Signal transducer and activator of transcription 3 (Homo sapiens); assay: PROTAC activity at CRBN/STAT3 in human SU-DHL-4 cells assessed as induction of STAT3 degradation at 5 uM measured after 3 hrs; format: cell-based
[7] = biological target: T1, Protein cereblon/Signal transducer and activator of transcription 3 (Homo sapiens); assay: PROTAC activity at CRBN/STAT3 in human Pfeiffer cells assessed as induction of STAT3 degradation at 5 uM measured after 3 hrs; format: cell-based
[8] = biological target: T2, Protein cereblon/Signal transducer and activator of transcription 1-alpha/beta (Homo sapiens) (UniProt P42224+Q96SW2); assay: PROTAC activity at CRBN/STAT1 in human KARPAS-299 cells assessed as induction of STAT1 degradation at 5 to 10 uM measured after 24 hrs; format: cell-based; conditions: dose 5-10 µM
[9] = biological target: T2, Protein cereblon/Signal transducer and activator of transcription 1-alpha/beta (Homo sapiens); assay: PROTAC activity at CRBN/STAT1 in human DB cells assessed as induction of STAT1 degradation at 5 to 10 uM measured after 24 hrs; format: cell-based; conditions: dose 5-10 µM
[10] = biological target: T3, Protein cereblon/Signal transducer and activator of transcription 2 (Homo sapiens) (UniProt Q96SW2+P52630); assay: PROTAC activity at CRBN/STAT2 in human KARPAS-299 cells assessed as induction of STAT2 degradation at 5 to 10 uM measured after 24 hrs; format: cell-based; conditions: dose 5-10 µM
[11] = biological target: T3, Protein cereblon/Signal transducer and activator of transcription 2 (Homo sapiens); assay: PROTAC activity at CRBN/STAT2 in human DB cells assessed as induction of STAT2 degradation at 5 to 10 uM measured after 24 hrs; format: cell-based; conditions: dose 5-10 µM
[12] = biological target: T4, Protein cereblon/Signal transducer and activator of transcription 5A (Homo sapiens) (UniProt P42229+Q96SW2); assay: PROTAC activity at CRBN/STAT5A in human KARPAS-299 cells assessed as induction of STAT5A degradation at 5 to 10 uM measured after 24 hrs; format: cell-based; conditions: dose 5-10 µM
[13] = biological target: T4, Protein cereblon/Signal transducer and activator of transcription 5A (Homo sapiens); assay: PROTAC activity at CRBN/STAT5A in human DB cells assessed as induction of STAT5A degradation at 5 to 10 uM measured after 24 hrs; format: cell-based; conditions: dose 5-10 µM
[14] = biological target: T5, Protein cereblon/Signal transducer and activator of transcription 5B (Homo sapiens) (UniProt P51692+Q96SW2); assay: PROTAC activity at CRBN/STAT5B in human KARPAS-299 cells assessed as induction of STAT5B degradation at 5 to 10 uM measured after 24 hrs; format: cell-based; conditions: dose 5-10 µM
[15] = biological target: T5, Protein cereblon/Signal transducer and activator of transcription 5B (Homo sapiens); assay: PROTAC activity at CRBN/STAT5B in human DB cells assessed as induction of STAT5B degradation at 5 to 10 uM measured after 24 hrs; format: cell-based; conditions: dose 5-10 µM
[16] = biological target: T6, Protein cereblon/Signal transducer and activator of transcription 6 (Homo sapiens) (UniProt P42226+Q96SW2); assay: PROTAC activity at CRBN/STAT6 in human KARPAS-299 cells assessed as induction of STAT6 degradation at 5 to 10 uM measured after 24 hrs; format: cell-based; conditions: dose 5-10 µM
[17] = biological target: T6, Protein cereblon/Signal transducer and activator of transcription 6 (Homo sapiens); assay: PROTAC activity at CRBN/STAT6 in human DB cells assessed as induction of STAT6 degradation at 5 to 10 uM measured after 24 hrs; format: cell-based; conditions: dose 5-10 µM
[18] = biological target: T1, Protein cereblon/Signal transducer and activator of transcription 3 (Homo sapiens); assay: PROTAC activity at CRBN/STAT3 in human KARPAS-299 cells assessed as induction of STAT3 degradation at 5 to 10 uM measured after 24 hrs; format: cell-based; conditions: dose 5-10 µM
[19] = biological target: T1, Protein cereblon/Signal transducer and activator of transcription 3 (Homo sapiens); assay: PROTAC activity at CRBN/STAT3 in human DB cells assessed as induction of STAT3 degradation at 5 to 10 uM measured after 24 hrs; format: cell-based; conditions: dose 5-10 µM
[20] = biological target: T1, Protein cereblon/Signal transducer and activator of transcription 3 (Homo sapiens); assay: PROTAC activity at CRBN/STAT3 in human KARPAS-299 cells assessed as fold change in STAT3 degradation at 5 uM measured after 24 hrs; format: cell-based
[21] = biological target: T1, Protein cereblon/Signal transducer and activator of transcription 3 (Homo sapiens); assay: PROTAC activity at CRBN/STAT3 in human DB cells assessed as fold change in STAT3 degradation at 5 uM measured after 24 hrs; format: cell-based
[22] = biological target: T1, Protein cereblon/Signal transducer and activator of transcription 3 (Homo sapiens); assay: PROTAC activity at CRBN/STAT3 in human SU-DHL-4 cells assessed as fold change in STAT3 degradation at 5 uM measured after 24 hrs; format: cell-based
[23] = biological target: T1, Protein cereblon/Signal transducer and activator of transcription 3 (Homo sapiens); assay: PROTAC activity at CRBN/STAT3 in human Pfeiffer cells assessed as fold change in STAT3 degradation at 5 uM measured after 24 hrs; format: cell-based
[24] = biological target: T1, Protein cereblon/Signal transducer and activator of transcription 3 (Homo sapiens); assay: PROTAC activity at CRBN/STAT3 in human MOLM16 cells assessed as fold change in STAT3 degradation at 5 uM measured after 24 hrs; format: cell-based
[25] = biological target: T1, Protein cereblon/Signal transducer and activator of transcription 3 (Homo sapiens); assay: PROTAC activity at CRBN/STAT3 in human SUPM2 cells assessed as fold change in STAT3 degradation at 5 uM measured after 24 hrs; format: cell-based
KARPAS-299 [26] = assay: Downregulation of PCLAF expression in human KARPAS-299 at 5 to 10 uM measured after 24 hrs; format: functional, cell-based; conditions: dose 5-10 µM
MOLM-16 [27] = assay: Downregulation of PCLAF expression in human MOLM16 at 5 to 10 uM measured after 24 hrs; format: functional, cell-based; conditions: dose 5-10 µM
SUP-M2 [28] = assay: Downregulation of PCLAF expression in human SUPM2 at 5 to 10 uM measured after 24 hrs; format: functional, cell-based; conditions: dose 5-10 µM
DB [29] = assay: Downregulation of PCLAF expression in human DB at 5 to 10 uM measured after 24 hrs; format: functional, cell-based; conditions: dose 5-10 µM
SUD4 [30] = assay: Downregulation of PCLAF expression in human SU-DHL-4 at 5 to 10 uM measured after 24 hrs; format: functional, cell-based; conditions: dose 5-10 µM
Pfeiffer [31] = assay: Downregulation of PCLAF expression in human Pfeiffer at 5 to 10 uM measured after 24 hrs; format: functional, cell-based; conditions: dose 5-10 µM
KARPAS-299 [32] = assay: Downregulation of NOP53 expression in human KARPAS-299 at 5 to 10 uM measured after 24 hrs; format: functional, cell-based; conditions: dose 5-10 µM
MOLM-16 [33] = assay: Downregulation of NOP53 expression in human MOLM16 at 5 to 10 uM measured after 24 hrs; format: functional, cell-based; conditions: dose 5-10 µM
SUP-M2 [34] = assay: Downregulation of NOP53 expression in human SUPM2 at 5 to 10 uM measured after 24 hrs; format: functional, cell-based; conditions: dose 5-10 µM
DB [35] = assay: Downregulation of NOP53 expression in human DB at 5 to 10 uM measured after 24 hrs; format: functional, cell-based; conditions: dose 5-10 µM
SUD4 [36] = assay: Downregulation of NOP53 expression in human SU-DHL-4 at 5 to 10 uM measured after 24 hrs; format: functional, cell-based; conditions: dose 5-10 µM
Pfeiffer [37] = assay: Downregulation of NOP53 expression in human Pfeiffer at 5 to 10 uM measured after 24 hrs; format: functional, cell-based; conditions: dose 5-10 µM
Pfeiffer [38] = assay: Cytotoxicity against human Pfeiffer cells harbouring STAT1 assessed as reduction in cell viability measured after 3 days by CCK- method; format: functional, cell-based; conditions: time 3.0 day
Pfeiffer [39] = assay: Cytotoxicity against human Pfeiffer cells harbouring STAT3 assessed as reduction in cell viability at 2 uM measured after 3 days by CCK- method; format: functional, cell-based; conditions: time 3.0 day
Pfeiffer [40] = assay: Downregulation of STAT3 expression in patient derived STAT3 high expressing human Pfeiffer cell organoids at 2 uM by Western blot analysis; format: functional, cell-based
Pfeiffer [41] = assay: Downregulation of STAT1 expression in patient derived STAT1 high expressing human Pfeiffer cell organoids at 2 uM by Western blot analysis; format: functional, cell-based
Pfeiffer [42] = assay: Downregulation of STAT3 expression in patient derived STAT3 low expressing human Pfeiffer cell organoids at 2 uM by Western blot analysis; format: functional, cell-based
Pfeiffer [43] = assay: Antitumor activity against human Pfeiffer cells xenografted in CB-17/SCID mouse model bearing late stage of TPPRC assessed as inhibition of tumor growth at 25 to 50 mg/kg, iv measured upto 21 days; format: functional, organism-based; conditions: dose 25-50 mg/kg, time <= 21.0 day
Mus musculus [44] = assay: In vivo PROTAC activity at human Pfeiffer cells xenografted in CB-17/SCID mouse model bearing late stage of TPPRC assessed as degradation of STAT3 at administered as IV dose; format: functional, organism-based; conditions: dose 25-50 mg/kg
Mus musculus [45] = assay: In vivo PROTAC activity at CRBN/STAT1 in human Pfeiffer cells xenografted in CB-17/SCID mouse model bearing middle stage of TPPRC assessed as upregulation of STAT1 by measuring fold change; format: functional
Mus musculus [46] = assay: In vivo PROTAC activity at CRBN/STAT1 in human Pfeiffer cells xenografted in CB-17/SCID mouse model bearing last stage of TPPRC assessed as upregulation of STAT1 by measuring fold change; format: functional

T1 sequence (P40763 2-770 limits assumed): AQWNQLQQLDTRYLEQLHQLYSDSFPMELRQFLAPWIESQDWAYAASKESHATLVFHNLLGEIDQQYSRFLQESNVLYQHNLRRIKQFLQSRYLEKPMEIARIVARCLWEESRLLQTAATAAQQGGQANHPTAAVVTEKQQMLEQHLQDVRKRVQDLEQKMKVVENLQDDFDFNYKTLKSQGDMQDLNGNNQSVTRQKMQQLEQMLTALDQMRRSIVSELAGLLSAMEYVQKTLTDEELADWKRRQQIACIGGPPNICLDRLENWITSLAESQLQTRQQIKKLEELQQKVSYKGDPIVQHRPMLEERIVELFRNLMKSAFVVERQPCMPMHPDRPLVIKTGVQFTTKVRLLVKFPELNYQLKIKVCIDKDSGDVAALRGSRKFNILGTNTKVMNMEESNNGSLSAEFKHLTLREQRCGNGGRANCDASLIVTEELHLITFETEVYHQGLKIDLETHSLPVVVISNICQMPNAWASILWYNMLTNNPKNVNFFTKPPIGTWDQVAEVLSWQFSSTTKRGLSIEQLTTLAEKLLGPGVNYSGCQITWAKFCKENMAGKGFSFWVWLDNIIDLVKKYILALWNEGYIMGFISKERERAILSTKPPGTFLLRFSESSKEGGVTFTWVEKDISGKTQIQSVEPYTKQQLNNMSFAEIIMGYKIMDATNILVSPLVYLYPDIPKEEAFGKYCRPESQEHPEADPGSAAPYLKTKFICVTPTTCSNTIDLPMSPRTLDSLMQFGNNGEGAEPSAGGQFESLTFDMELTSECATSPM
T1 sequence (Q96SW2 whole entry partner): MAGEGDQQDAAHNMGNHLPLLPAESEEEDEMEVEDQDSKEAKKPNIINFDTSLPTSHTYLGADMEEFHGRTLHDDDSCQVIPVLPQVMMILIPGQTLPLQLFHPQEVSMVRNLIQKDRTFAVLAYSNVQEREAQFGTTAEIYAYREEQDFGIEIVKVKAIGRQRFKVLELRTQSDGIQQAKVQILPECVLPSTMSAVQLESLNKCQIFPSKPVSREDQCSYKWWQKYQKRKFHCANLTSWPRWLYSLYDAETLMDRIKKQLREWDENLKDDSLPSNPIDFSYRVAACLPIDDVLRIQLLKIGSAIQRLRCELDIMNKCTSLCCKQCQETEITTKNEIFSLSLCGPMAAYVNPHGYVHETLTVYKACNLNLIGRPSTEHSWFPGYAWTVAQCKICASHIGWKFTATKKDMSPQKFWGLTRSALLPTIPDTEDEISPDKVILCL
T6 sequence (P42226 2-847 limits assumed): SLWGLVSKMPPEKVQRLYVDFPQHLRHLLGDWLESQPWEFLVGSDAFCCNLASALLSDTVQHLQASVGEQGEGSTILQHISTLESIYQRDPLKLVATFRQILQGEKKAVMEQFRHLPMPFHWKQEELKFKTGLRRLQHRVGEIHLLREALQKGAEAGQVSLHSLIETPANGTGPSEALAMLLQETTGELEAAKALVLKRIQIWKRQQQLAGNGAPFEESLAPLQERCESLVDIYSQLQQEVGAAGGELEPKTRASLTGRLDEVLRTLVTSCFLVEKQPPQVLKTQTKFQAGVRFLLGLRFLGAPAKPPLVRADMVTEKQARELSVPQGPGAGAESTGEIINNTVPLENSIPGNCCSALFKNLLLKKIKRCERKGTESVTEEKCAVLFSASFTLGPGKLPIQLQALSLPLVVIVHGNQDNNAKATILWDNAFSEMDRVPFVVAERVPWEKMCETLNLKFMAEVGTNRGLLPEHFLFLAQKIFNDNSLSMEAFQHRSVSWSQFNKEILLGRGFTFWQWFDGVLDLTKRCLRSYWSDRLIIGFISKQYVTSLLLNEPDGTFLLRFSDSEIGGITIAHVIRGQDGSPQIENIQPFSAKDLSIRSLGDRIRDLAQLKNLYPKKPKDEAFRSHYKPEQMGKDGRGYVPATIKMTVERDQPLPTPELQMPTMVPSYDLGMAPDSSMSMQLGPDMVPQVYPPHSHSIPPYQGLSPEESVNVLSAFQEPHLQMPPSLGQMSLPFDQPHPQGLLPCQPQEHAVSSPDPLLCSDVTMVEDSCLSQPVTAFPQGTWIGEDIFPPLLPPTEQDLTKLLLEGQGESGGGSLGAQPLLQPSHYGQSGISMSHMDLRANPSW
T6 sequence (Q96SW2 whole entry partner): as the sequence (Q96SW2 whole entry partner) above
T5 sequence (P51692 whole entry, looked up): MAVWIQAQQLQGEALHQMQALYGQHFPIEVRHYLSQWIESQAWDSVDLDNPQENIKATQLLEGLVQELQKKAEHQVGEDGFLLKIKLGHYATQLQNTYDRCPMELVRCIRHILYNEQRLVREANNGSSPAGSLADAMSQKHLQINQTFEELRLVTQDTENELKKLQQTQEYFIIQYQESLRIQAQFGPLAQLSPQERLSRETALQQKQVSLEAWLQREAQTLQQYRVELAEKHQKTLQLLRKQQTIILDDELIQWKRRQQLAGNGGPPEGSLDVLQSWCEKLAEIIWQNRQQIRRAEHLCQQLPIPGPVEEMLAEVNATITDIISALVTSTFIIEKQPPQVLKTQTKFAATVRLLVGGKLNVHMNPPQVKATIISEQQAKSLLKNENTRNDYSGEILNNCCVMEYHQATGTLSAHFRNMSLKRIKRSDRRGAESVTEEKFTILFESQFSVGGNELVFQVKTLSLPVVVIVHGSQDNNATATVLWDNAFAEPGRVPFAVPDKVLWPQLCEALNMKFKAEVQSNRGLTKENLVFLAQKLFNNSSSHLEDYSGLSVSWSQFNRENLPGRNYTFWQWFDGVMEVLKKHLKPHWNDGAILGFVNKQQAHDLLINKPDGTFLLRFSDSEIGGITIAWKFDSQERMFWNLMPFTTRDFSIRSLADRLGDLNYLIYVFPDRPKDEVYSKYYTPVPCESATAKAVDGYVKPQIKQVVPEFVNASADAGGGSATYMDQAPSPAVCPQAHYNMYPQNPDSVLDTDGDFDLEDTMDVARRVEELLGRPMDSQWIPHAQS
T5 sequence (Q96SW2 whole entry, looked up): as the sequence (Q96SW2 whole entry partner) above
T4 sequence (P42229 whole entry, looked up): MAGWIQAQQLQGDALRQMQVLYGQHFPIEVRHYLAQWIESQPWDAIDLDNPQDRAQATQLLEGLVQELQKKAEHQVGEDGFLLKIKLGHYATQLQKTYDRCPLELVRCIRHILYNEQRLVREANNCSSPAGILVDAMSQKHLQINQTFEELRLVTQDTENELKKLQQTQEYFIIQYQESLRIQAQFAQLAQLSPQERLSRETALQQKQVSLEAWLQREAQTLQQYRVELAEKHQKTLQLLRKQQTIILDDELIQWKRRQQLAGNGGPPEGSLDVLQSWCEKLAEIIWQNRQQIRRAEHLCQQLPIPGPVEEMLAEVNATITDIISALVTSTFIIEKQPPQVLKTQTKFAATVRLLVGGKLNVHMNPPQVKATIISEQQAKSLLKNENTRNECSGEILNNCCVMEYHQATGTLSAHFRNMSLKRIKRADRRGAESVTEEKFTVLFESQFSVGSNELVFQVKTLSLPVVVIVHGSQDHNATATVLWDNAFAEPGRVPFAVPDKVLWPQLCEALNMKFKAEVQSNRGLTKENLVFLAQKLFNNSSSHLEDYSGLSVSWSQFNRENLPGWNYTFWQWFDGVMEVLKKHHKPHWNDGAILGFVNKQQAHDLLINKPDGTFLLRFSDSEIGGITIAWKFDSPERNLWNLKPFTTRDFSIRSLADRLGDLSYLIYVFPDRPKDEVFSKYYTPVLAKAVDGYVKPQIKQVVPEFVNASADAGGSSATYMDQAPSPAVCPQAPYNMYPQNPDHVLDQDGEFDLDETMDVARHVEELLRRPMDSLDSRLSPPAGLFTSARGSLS
T4 sequence (Q96SW2 whole entry, looked up): as the sequence (Q96SW2 whole entry partner) above
T3 sequence (P52630 whole entry, looked up): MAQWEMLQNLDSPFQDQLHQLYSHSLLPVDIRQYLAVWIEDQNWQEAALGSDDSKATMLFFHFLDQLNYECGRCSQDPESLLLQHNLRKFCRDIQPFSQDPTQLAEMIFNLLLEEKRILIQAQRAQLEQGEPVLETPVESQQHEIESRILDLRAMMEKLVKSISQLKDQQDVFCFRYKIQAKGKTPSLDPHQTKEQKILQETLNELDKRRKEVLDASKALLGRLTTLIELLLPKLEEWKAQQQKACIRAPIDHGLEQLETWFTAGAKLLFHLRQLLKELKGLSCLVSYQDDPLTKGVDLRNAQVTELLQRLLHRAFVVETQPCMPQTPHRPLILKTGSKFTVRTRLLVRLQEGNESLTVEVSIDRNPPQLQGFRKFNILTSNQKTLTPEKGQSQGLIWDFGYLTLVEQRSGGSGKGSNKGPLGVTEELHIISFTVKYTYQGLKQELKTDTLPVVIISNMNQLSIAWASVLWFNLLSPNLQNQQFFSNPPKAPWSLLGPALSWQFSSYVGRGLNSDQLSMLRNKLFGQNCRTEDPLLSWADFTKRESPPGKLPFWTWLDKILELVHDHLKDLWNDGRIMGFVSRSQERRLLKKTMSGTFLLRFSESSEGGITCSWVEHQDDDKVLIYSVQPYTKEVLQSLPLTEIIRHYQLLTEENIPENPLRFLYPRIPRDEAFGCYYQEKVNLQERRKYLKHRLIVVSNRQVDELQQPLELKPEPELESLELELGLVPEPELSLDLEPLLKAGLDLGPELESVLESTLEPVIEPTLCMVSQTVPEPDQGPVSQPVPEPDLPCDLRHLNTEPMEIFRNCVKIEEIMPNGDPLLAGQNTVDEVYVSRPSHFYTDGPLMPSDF
T3 sequence (Q96SW2 whole entry, looked up): as the sequence (Q96SW2 whole entry partner) above

NC(=O)CC[C@H](NC(=O)[C@@H]1CC[C@@H]2CCN(C(=O)CCCCCC#Cc3cccc4c3CN(C3CCC(=O)NC3=O)C4=O)C[C@H](NC(=O)c3cc4cc(C(F)(F)P(=O)(O)O)ccc4[nH]3)C(=O)N21)C(=O)NC(c1ccccc1)c1ccccc1 (stereo partly specified)
>3.5: fold change (FC) (Mus musculus [45]) | fold change (FC) (Mus musculus [46])
active: Activity [2] | Activity [3] | Activity [4] | Activity [5] | Activity [6] | Activity [7] | Activity [18] | Activity [19] | Activity (KARPAS-299 [26]) | Activity (MOLM-16 [27]) | Activity (SUP-M2 [28]) | Activity (KARPAS-299 [32]) | Activity (MOLM-16 [33]) | Activity (SUP-M2 [34]) | Activity (Pfeiffer [38]) | Activity (Pfeiffer [39]) | Activity (Pfeiffer [40]) | Activity (Pfeiffer [41]) | Activity (Pfeiffer [42]) | Activity (Pfeiffer [43]) | Activity (Mus musculus [44]) Dose-Dependent Effect
Non-Toxic: Activity [1]
0.66: fold change (FC) [20] | fold change (FC) [21] | fold change (FC) [22] | fold change (FC) [23] | fold change (FC) [24] | fold change (FC) [25]
inactive: Activity [8] | Activity [9] | Activity [10] | Activity [11] | Activity [12] | Activity [13] | Activity [14] | Activity [15] | Activity [16] | Activity [17] | Activity (DB [29]) | Activity (SUD4 [30]) | Activity (Pfeiffer [31]) | Activity (DB [35]) | Activity (SUD4 [36]) | Activity (Pfeiffer [37])
